Measured values: PubChem BioAssay (NCI)
“And” between values parts separate entries of the source, which are not always exact repeats. Equal values may be shown once.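 1) Cells in 96-well plates. 2) Compound, 48 h, 5 concentrations. 3) Linear interpolation between surrounding doses. 4) Unreached endpoint = highest concentration. Abbreviation: GI50, concentration required for 50% inhibition of growth. TGI: concentration producing complete growth inhibition.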

Assays:
Assay in all cases: NCI tumour cell line growth inhibition, 48 h
[1] = test system: MDA-N
[2] = test system: SNB-78 CNS
[3] = test system: M19-MEL melanoma
[4] = test system: DMS 273 small cell lung
[5] = test system: DMS 114 small cell lung
[6] = test system: KM20L2 colon
[7] = test system: HOP-18 NSCLC
[8] = test system: RXF-631 renal
[9] = test system: DLD-1 colon
[10] = test system: P388/ADR leukemia

SMILES | TGI [1] | TGI [2] | TGI [3] | TGI [4] | TGI [5] | TGI [6] | TGI [7] | TGI [9] | further results
N#C/C(=C\Nc1ccccn1)C(=O)c1ccco1 | > 100 µM |  |  |  |  |  |  |  | 
CCCCCCCC(=O)OCC1OC(n2cc(F)c(=O)[nH]c2=O)C(NC(=O)OCc2ccccc2)C(O)C1O (stereo unspecified) |  | > 100 µM | > 100 µM | > 100 µM | > 100 µM | > 100 µM |  |  | 
CCC(=O)C(C)C(=O)C(=O)C(=O)OC (stereo unspecified) |  | > 100 µM | > 100 µM | > 100 µM | > 100 µM | > 100 µM | > 100 µM | > 100 µM | TGI [8]: > 100 µM
O=C1[C@H]2ON(c3ccccc3)C(c3ccccc3F)[C@H]2C(=O)N1c1ccc(Cc2ccc(N3C(=O)[C@@H]4ON(c5ccccc5)C(c5ccccc5F)[C@@H]4C3=O)cc2)cc1 (stereo partly specified) |  | > 100 µM | > 100 µM | > 100 µM | > 100 µM | > 100 µM | > 100 µM | > 100 µM | TGI [8]: > 100 µM
O=C(O)C(C(=O)C(=O)C(C(=O)O)c1ccc(Cl)cc1)c1ccc(Cl)cc1 (stereo unspecified) |  | 13.9 µM | 12.5 µM | 12.9 µM | 5.64 µM | 11.3 µM | 18.1 µM | 14.1 µM | 
CC1=C(C(=O)Nc2ccc([N+](=O)[O-])cc2)C(c2ccccc2O)C(C(=O)Nc2ccc([N+](=O)[O-])cc2)=C(C)N1 |  | 91.8 µM | 64.4 µM | 47.1 µM | 44.8 µM | 35.8 µM |  | 57.8 µM | TGI [8]: 36.6 µM
Clc1ccc(C(c2ccc(Cl)cc2)N2CCNCC2)cc1 | 3.62 µM |  |  |  |  |  |  |  | 
O=[P+](O)c1cc2ccccc2c2ccccc12 |  | > 100 µM | > 100 µM | > 100 µM | > 100 µM | > 100 µM | > 100 µM | > 100 µM | 
COc1ccc(OC)c(NCC#N)c1 |  |  | > 100 µM | > 100 µM | > 100 µM | > 100 µM | > 100 µM |  | TGI [8]: > 100 µM
CC(=O)OCc1ccc(O)c(C=O)c1 | > 100 µM |  |  |  |  |  |  |  | 
CN(C(=O)C12C3(C(=O)C(C)(C)C)C4C5(C#N)C3C1(C(=O)C(C)(C)C)C5C42C(=O)C(C)(C)C)C(C)(C)C (stereo unspecified) |  | > 50 µM | > 50 µM | > 50 µM | > 50 µM | > 50 µM |  | > 50 µM | TGI [8]: > 50 µM
CN(C)C(=S)/N=c1\ss/c(=N\C(=S)N(C)C)n1-c1ccc(Cl)cc1 |  | > 100 µM |  | > 100 µM |  | > 100 µM |  |  | 
O=c1nc(NC(c2ccccc2)(c2ccccc2)c2ccccc2)ccn1CCO |  | > 100 µM |  |  | > 100 µM | > 100 µM | > 100 µM | > 100 µM | 
CCOC(=O)[C@H]1CSC[C@@H](C(=O)OC)N1 |  |  | > 100 µM | > 100 µM | > 100 µM |  |  | > 100 µM | 
COc1ccc2nc(NCN3C(=O)c4ccccc4C3=O)sc2c1 | > 100 µM |  |  |  |  |  |  |  | 
CSc1nc(SC)c2c(C(N)=S)[nH]nc2n1 |  | 85.8 µM | 91.7 µM | 98.3 µM | 83 µM | 85 µM |  | > 100 µM | TGI [8]: 93.7 µM
COC(=O)c1ccc(NC(=O)c2cc(OC)c(OC)c(OC)c2)cc1 |  |  | > 100 µM | > 100 µM | 0.706 µM | > 100 µM | > 100 µM | > 100 µM | 
CCOC(=O)c1cc2c(cn1)[nH]c1cccc(N)c12 |  | > 100 µM | > 100 µM | > 100 µM | > 100 µM |  | > 100 µM | > 100 µM | 
COc1cc(C=O)c(-c2cc3c(cc2C2(C)OCCS2)OCO3)c(OC)c1OC (stereo unspecified) |  | > 239 µM |  | 36.8 µM | 71.8 µM | 9.17 µM |  | 50.7 µM | 
CC(=O)C1COC(O)C1C (stereo unspecified) | 43.5 µM |  |  |  |  |  |  |  | 
CCCCN=C(NC#N)N(Cc1ccccc1)Cc1ccccc1 |  | > 100 µM | 35.8 µM | 37.1 µM |  | 52.4 µM | > 100 µM | 36.4 µM | 
O=C1C2CC=CCC2C(=O)C12CCc1ccccc12 (stereo unspecified) |  | > 100 µM | > 100 µM | > 100 µM |  | > 100 µM | > 100 µM | > 100 µM | 

SMILES | TGI [1] | TGI [2] | TGI [3] | TGI [4] | TGI [5] | TGI [6] | TGI [7] | TGI [9] | further results
OC(C1CO1)C(O)C1CO1 (stereo unspecified) | 134 µM and 284 µM | 150 µM | 150 µM | 76.9 µM | 150 µM | 150 µM | 150 µM | > 150 µM | TGI [10]: 150 µM; GI50 [1]: 92.2 µM
Cc1cc(Oc2cnc(=O)[nH]c2)cs1 | > 100 µM |  |  |  |  |  |  |  | 
Fc1cccc(CSc2ncnc3c2ncn3C2CCCS2)c1 (stereo unspecified) | 56.8 µM |  |  |  |  |  |  |  | 
Cc1ccc(C(=O)N2c3ccccc3N(C)n3cccc3C2CC(=O)O)cc1 (stereo unspecified) |  | > 100 µM | > 100 µM | > 100 µM | > 100 µM | > 100 µM |  | > 100 µM | 
O=C(NC12CC3CC(CC(C3)C1)C2)C(=O)c1c[nH]c2ccc([N+](=O)[O-])cc12 |  |  | > 100 µM | 45 µM | > 100 µM | > 100 µM | > 90.9 µM |  | 
N#Cc1ccc(Nc2cnc3ccc(N)cc3n2)cc1 |  | > 100 µM | > 100 µM | > 100 µM | > 100 µM | > 100 µM |  | > 100 µM | 
CCOC(=O)NC1=C(N2CC2)C(=O)C(NC(=O)OCC)=C(N2CC2)C1=O | 5.41 µM | 24.2 µM and 28.5 µM | 19.2 µM and 12.5 µM | 20.5 µM and 41.4 µM | 7.85 µM and 7.33 µM | 31.6 µM and 45.3 µM | 24.4 µM and 49.9 µM | 38 µM and 78.9 µM | GI50 [2]: 9.36 µM; GI50 [7]: 8.57 µM; GI50 [8]: 6.73 µM and 14.4 µM; TGI [8]: 30.3 µM and 54.6 µM; GI50 [9]: 8.56 µM; TGI [10]: 17.6 µM; GI50 [4]: 1.01 µM; GI50 [5]: 3.49 µM
CC(C)N1CCC2(CC1)NNc1ncccc1-n1cccc12 |  | > 100 µM | > 100 µM | > 100 µM | > 100 µM |  | > 100 µM | > 100 µM | 
CC(C)[NH-].CC(C)[NH-].O.O.[Cl][Pt+2][Cl] | 106 µM | 375 µM | 77.1 µM |  | 44.1 µM | 141 µM | 337 µM | 238 µM | GI50 [2]: 54.5 µM; GI50 [7]: 60.5 µM; GI50 [9]: 45.1 µM; GI50 [3]: 21.3 µM; GI50 [10]: 8.11 µM; TGI [10]: 59.9 µM; GI50 [5]: 10.9 µM; GI50 [6]: 15.2 µM; GI50 [1]: 17.4 µM
CC(C)(O)[C@@H]1CC[C@@]2(C)CCC[C@H](O)[C@H]2C1 |  |  | > 100 µM | > 100 µM | > 100 µM | > 100 µM | > 100 µM | > 100 µM | TGI [8]: > 100 µM
COc1ccc2nc3cc([N+](=O)[O-])ccc3c(NCCCN(CCO)CCO)c2c1 | 8.93 µM |  |  |  |  |  |  |  | GI50 [1]: 3.47 µM
NC(CC(=O)Nc1ccc(Cl)cc1)=Nc1ccccc1 |  | > 100 µM | > 100 µM | > 100 µM |  | > 100 µM |  | > 100 µM | 
O=C(NCCCCCCNC(=O)n1cc(F)c(=O)[nH]c1=O)NCCCOCCOCCOCCOCCOCCOCCOCCOCCOCCOCCOCCOCCOCCOCCOCCOCCOCCOCCOCCOCCOCCCNC(=O)C(O)C(O)C(OC1OC(CO)C(O)C(O)C1O)C(O)CO (stereo unspecified) | > 100 µM | > 100 µM | > 100 µM | > 100 µM | > 100 µM | > 100 µM | > 100 µM | > 100 µM | TGI [10]: > 100 µM
Cc1ccc(C(=O)N2CCN(C(=O)c3ccc(C)cc3)c3ccccc32)cc1 | > 100 µM | > 100 µM | > 100 µM | > 35.8 µM | 18 µM | > 32.6 µM | > 100 µM | > 100 µM | 
COC(=O)[C@@]1(O)CC(C)C=C1C=O (stereo partly specified) |  | > 100 µM | > 100 µM | 34.6 µM | 89.7 µM | > 100 µM | > 100 µM | > 100 µM | 
O=c1cc(-c2ccccc2)nc(/C=C(\O)c2ccncc2)n1-c1ccccc1 |  | > 100 µM | > 100 µM | > 100 µM | > 100 µM | > 100 µM | > 100 µM | > 100 µM | 
Nc1nc(NC2C=C(CO)C(O)C2O)c([N+](=O)[O-])c(=O)[nH]1 (stereo unspecified) |  | > 100 µM | > 100 µM | > 100 µM | > 100 µM | > 100 µM | > 100 µM | > 100 µM | 
COc1cc([C@H]2c3cc4c(cc3[C@H](NCc3ccc([N+](=O)[O-])cc3)C3COC(=O)[C@H]32)OCO4)cc(OC)c1O (stereo partly specified) |  | > 100 µM | > 100 µM | > 100 µM | > 25.3 µM | 14.4 µM |  | > 43.5 µM | 
CC(C)(c1ccc(Oc2ccc(C#N)c(C#N)c2)cc1)c1ccc(Oc2ccc(C#N)c(C#N)c2)cc1 |  |  | > 100 µM |  | > 100 µM | > 100 µM |  | > 100 µM | GI50 [8]: > 100 µM; TGI [8]: > 100 µM; GI50 [9]: > 100 µM; GI50 [3]: > 100 µM; GI50 [5]: > 100 µM; GI50 [6]: > 100 µM
O=C(Nc1ccc2[nH]c(C(=O)N3CC(CCl)c4c3cc([N+](=O)[O-])c3ccccc43)cc2c1)c1cc2ccccc2o1 (stereo unspecified) | > 1100 µM |  |  |  |  |  |  |  | GI50 [1]: > 1100 µM
COC1=C2C[C@H](O)C(C)C[C@@]2(OC)OC1=O (stereo partly specified) |  | > 100 µM | > 100 µM | > 100 µM |  |  |  | > 100 µM | TGI [8]: > 100 µM
O=C(O)C1C(=O)Oc2c(cccc2[N+](=O)[O-])C1O (stereo unspecified) | > 100 µM |  |  |  |  |  |  |  | 
